For experiment [1], the target named is Tumor necrosis factor receptor superfamily member 10B (Homo sapiens) (UniProt O14763). Briefly: Increase in DR5 promoter activity in SacI gene expressing human DLD1 cells at 17.5 to 70 uM after 24 hrs by luciferase reporter gene assay relative to control. The class given is cell-based. To be noted: DLD-1. For orientation: Reporter assays use an easily measured gene product as a stand-in for the process of interest.

The test system of experiment [2] is AGS. Briefly: Cytotoxicity against TRAIL-resistant human AGS cells assessed as cell viability at 12.5 uM after 24 hrs by fluorometric microculture assay in presence of 100 ng/ml TRAIL. It counts as functional.
Experiment [3] relates to AGS. Briefly: Cytotoxicity against TRAIL-resistant human AGS cells assessed as cell viability at 17.5 uM after 24 hrs by fluorometric microculture assay in presence of 100 ng/ml TRAIL. It counts as functional.
The target of experiment [4] is Tumor necrosis factor receptor superfamily member 10B (Homo sapiens) (UniProt O14763). Briefly: Increase in DR5 promoter activity in SacI gene expressing human DLD1 cells at 17.5 uM after 24 hrs by luciferase reporter gene assay relative to control. The class given is cell-based. To be noted: DLD-1.
Experiment [5] concerns AGS. Briefly: Cytotoxicity against TRAIL-resistant human AGS cells assessed as cell viability at 17.5 uM after 24 hrs by fluorometric microculture assay. To be noted: read-out: Activity. The class given is functional.

Active and inactive are the calls of the source. The rule behind the calls is not given here.

Chain of Tumor necrosis factor receptor superfamily member 10B (Homo sapiens) (O14763 whole entry): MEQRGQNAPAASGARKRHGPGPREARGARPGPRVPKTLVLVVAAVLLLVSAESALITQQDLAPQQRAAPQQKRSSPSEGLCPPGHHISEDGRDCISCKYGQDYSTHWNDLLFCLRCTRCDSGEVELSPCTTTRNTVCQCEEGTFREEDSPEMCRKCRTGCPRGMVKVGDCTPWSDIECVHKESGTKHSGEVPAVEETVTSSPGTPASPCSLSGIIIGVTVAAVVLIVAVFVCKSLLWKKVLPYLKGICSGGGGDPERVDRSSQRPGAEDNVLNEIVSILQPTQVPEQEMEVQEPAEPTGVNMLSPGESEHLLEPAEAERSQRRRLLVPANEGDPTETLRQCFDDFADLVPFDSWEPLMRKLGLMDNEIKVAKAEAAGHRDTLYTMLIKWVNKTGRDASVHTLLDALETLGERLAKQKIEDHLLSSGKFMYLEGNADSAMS

Turning to `COC(C)(C)/C=C/C[C@@H](C)[C@H]1CC[C@@]2(C)[C@@H]3[C@@H](O)C[C@H]4C(C)(C)C(=O)CC[C@@]45C[C@@]35CC[C@]12C`, the fold change (FC) in experiment [1] was 2.5. The same measure, in the same setting: next, `C=C(C)[C@@H](O)CC[C@@H](C)[C@H]1CC[C@@]2(C)[C@@H]3[C@@H](OC(C)=O)C[C@H]4[C@](C)(C(=O)O)[C@@H](O)CC[C@@]45C[C@@]35CC[C@]12C`: 1.7; `COc1cc(-c2oc3cc(O)cc(O)c3c(=O)c2OC)cc(O)c1OC`: 2.2. The compound `COc1ccc(-c2oc3cc(O)cc(O)c3c(=O)c2OC)cc1O` yielded a fold change (FC) in experiment [1] of 6.7. Further, the results for the Activity in the experiment on AGS [2] and with AGS [3] were 27% and 24%, respectively.

On to `O=c1cc(-c2ccc(O)c(O)c2)oc2cc(O)cc(O)c12` [LUTEOLIN], for which, in experiment [4], the result was Active. Besides, the viability at 17.5 µM with AGS [5] was found to be 51%.

With `COc1c(O)cc(-c2oc3cc(O)cc(O)c3c(=O)c2OC)cc1O`, the fold change (FC) in experiment [1] worked out at 2.

(Values after ChEMBL document CHEMBL1687869, “Cycloartane triterpenes isolated from Combretum quadrangulare in a screening program for death-receptor expression enhancing activity” (2011).)
